Assay [1] addresses T1, Alpha-ketoglutarate-dependent dioxygenase FTO (Homo sapiens, UniProt Q9C0B1). In words: Inhibition of FTO (unknown origin) demethylation activity.
For assay [2], the target named is T1, Alpha-ketoglutarate-dependent dioxygenase FTO. In words: Inhibition of FTO (unknown origin) demethylation activity using m6A7-Broccoli RNA as substrate incubated for 3 mins under shaking condition and measured after 2 hrs by fluorescence based analysis.

Two compounds from BindingDB's records for PubMed 34792334 (n/a, 2021) can be followed below.

T1 sequence (Q9C0B1 whole entry): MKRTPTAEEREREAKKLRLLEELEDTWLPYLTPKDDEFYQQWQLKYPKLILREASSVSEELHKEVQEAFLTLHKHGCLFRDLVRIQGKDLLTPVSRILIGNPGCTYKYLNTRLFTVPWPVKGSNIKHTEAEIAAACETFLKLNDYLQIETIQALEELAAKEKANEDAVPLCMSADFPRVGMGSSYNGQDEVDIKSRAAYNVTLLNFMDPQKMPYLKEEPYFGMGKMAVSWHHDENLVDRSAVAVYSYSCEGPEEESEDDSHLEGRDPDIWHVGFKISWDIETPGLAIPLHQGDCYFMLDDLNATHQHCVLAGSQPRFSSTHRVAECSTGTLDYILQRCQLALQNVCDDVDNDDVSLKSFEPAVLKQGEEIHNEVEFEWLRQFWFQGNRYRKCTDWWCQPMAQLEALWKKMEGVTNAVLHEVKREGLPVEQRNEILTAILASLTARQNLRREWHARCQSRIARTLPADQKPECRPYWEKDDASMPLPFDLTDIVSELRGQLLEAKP

As to `CCOc1nc2ccccc2nc1C(=O)Nc1ccc(N(CC)CC)cc1`, in assay [1], the midpoint of inhibition, the IC50, lay at 1200 nM.

As to `Nc1sc(-c2cncnc2)c2c1C(=O)c1ccccc1-2`, in assay [2], the IC50 (usually the concentration needed to halve the response being measured) turned out to be 1200 nM.
